“And” between values parts separate entries of the source, which are not always exact repeats. Identical values can stand only once. Like-named read-outs stand apart in the source and are kept apart here.
Columns and labels:
GCLM = experiment: RT-qPCR PCR array mQPA-8-Nrf2, GCLM expression in NHEK; assay type: cell-based, human; conditions: basal conditions, 20 μM
Experimental: (§1) In the present study, the effects of compound L-Ergothioneine were investigated in normal human epidermal keratinocytes (NHEK) under basal or UV-irradiated conditions. More specifically, the effects of this compound were evaluated using RT-qPCR technology. Extracted mRNA was analyzed using a PCR array (“mQPA-8-Nrf2”) for the analysis of 8 target genes (including 1 housekeeping gene) selected for their role in Nrf2 pathway. Prior to this assay, a preliminary cytotoxicity assay was performed on compound L-Ergothioneine and Resveratrol (reference in basal condition) using a standard WST-8 reduction assay, in order to determine the concentrations to be tested in this study.
(§2) Cell type: Normal human epidermal keratinocytes (NHEK) used at the 3rd passage. Culture conditions: 37° C., 5% CO2. Culture medium: Keratinocyte-SFM optimized for the assay, supplemented with Epidermal Growth Factor Pituitary extract. Assay medium: Keratinocyte-SFM optimized for the assay. Test compound: L-Ergothioneine in ultrapure water. Test concentrations: 0.5, 3 and 30 μM. Reference: Resveratrol. Test concentration: 20 μM.
(§3) Keratinocytes were seeded in 24-well plates and cultured for 24 hours in culture medium and in assay medium for a further 24 hours. The medium was then replaced by assay medium containing or not (control) the compound or Resveratrol and cells were pre-incubated for 24 hours.
(§4) After pre-incubation, the medium was then removed and replaced by a PBS solution. For basal conditions, the plate was kept in the dark during the irradiation time. For irradiated conditions, the cells were irradiated with UVB−275 mJ/cm^2 (+UVA−2 J/cm^2) using a SOL500 Sun Simulator equipped with an H2 filter (Dr. Hönle, AG). After irradiation time, the treatments were renewed, and the cells were incubated for 24 hours. All experimental conditions were performed in n=3. At the end of incubation, the cells were washed in phosphate buffered saline (PBS) solution and immediately frozen at −80° C.
(§5) The expression of markers was analyzed using RT-qPCR method on total RNA extracted from the cell monolayers of each experimental condition (before RNA extraction, the replicates of the same experimental condition were pooled). The analysis of transcripts was performed in n=2 using a PCR array dedicated to research and adapted to ‘screening’ format and targeting 8 genes selected for their role in Nrf2 pathway.
(§6) Total RNA was extracted from each sample using TriPure Isolation Reagent® according to the supplier's instructions. The amount and quality of RNA were evaluated using capillary electrophoresis (Bioanalyzer 2100, Agilent technologies). The complementary DNA (cDNA) was synthetized by reverse transcription of total RNA in presence of oligo(dT) and «Transcriptor Reverse Transcriptase» (Roche Molecular System Inc.). The cDNA quantities were then adjusted before PCR.
(§7) The PCR (Polymerase Chain Reaction) were performed using the «LightCycler®» system (Roche Molecular System Inc.) according to the supplier's instructions. The reaction mix (10 μl final) was prepared as follows: 2.5 μl of cDNA; primers (forward and reverse); reagent mix (Roche) containing taq DNA polymerase, SYBR Green I and MgCl2.
(§8) The incorporation of fluorescence in amplified DNA was continuously measured during the PCR cycles. […] The value selected for RE calculations is the “output point” (Ct) of the fluorescence curve. For a considered marker, the highest is the cycle number; the lowest is the mRNA quantity. The RE value was calculated with the formula: (½^number of cycles)×10^6. The PCR array used in the present study included 1 reference gene (RPS28).

TXN = experiment: RT-qPCR PCR array mQPA-8-Nrf2, TXN expression in NHEK; assay type: cell-based, human; conditions: basal conditions, 20 μM
Experimental: as §1, §2, §3, §4, §5, §6, §7, §8

HMOX1 = experiment: RT-qPCR PCR array mQPA-8-Nrf2, HMOX1 expression in NHEK; assay type: cell-based, human; conditions: basal conditions, 20 μM
Experimental: as §1, §2, §3, §4, §5, §6, §7, §8

Nrf2 pathway = experiment: Gene expression profile of keratinocytes (mQPA-8-Nrf2 array as a whole); assay type: cell-based, human; conditions: basal, tested at 20 μM
Experimental: as §1, §2, §3, §4, §5

[1] = tested on: normal human epidermal keratinocytes (NHEK); experiment: Preliminary cytotoxicity assay (WST-8 reduction, viability and morphological observations); assay type: cell-based; conditions: 24 hours; for Viability (%): single replicates
Experimental: as §1, §2
(§9) Cell type: NHEK in assay medium. Incubation time: 24 hours.
(§10) After treatment, the cells were incubated with WST-8 (highly water-soluble tetrazolium salt) reduced in a water-soluble orange colored product (formazan) by succinate dehydrogenase (mitochondrial enzyme). This transformation is proportional to the number of living cells and their metabolic activity. The optical density (OD) of the extracts at 450 nm was recorded with a spectrometer (VERSAmax, Molecular Devices).

[2] = as above; assay type: cell-based, human; conditions: human, normal human epidermal keratinocytes (NHEK)
Experimental: as §1, §2, §9, §10

NHEK = experiment: Morphological observation of cells at the end of the culture, irradiated condition; assay type: cell-based, human
Experimental: as §3, §4

RPS28 = experiment: RT-qPCR PCR array mQPA-8-Nrf2, housekeeping gene RPS28; assay type: cell-based, human; conditions: basal conditions, 20 μM
Experimental: as §1, §2, §3, §4, §5, §6, §7, §8

TXNRD1 = experiment: RT-qPCR PCR array mQPA-8-Nrf2, TXNRD1 expression in NHEK; assay type: cell-based, human; conditions: basal conditions, 20 μM
Experimental: as §1, §2, §3, §4, §5, §6, §7, §8

NQO1 = experiment: RT-qPCR PCR array mQPA-8-Nrf2, NQO1 expression in NHEK; assay type: cell-based, human; conditions: basal conditions, 20 μM
Experimental: as §1, §2, §3, §4, §5, §6, §7, §8

GCLC = experiment: RT-qPCR PCR array mQPA-8-Nrf2, GCLC expression in NHEK; assay type: cell-based, human; conditions: basal conditions, 20 μM
Experimental: as §1, §2, §3, §4, §5, §6, §7, §8

MT1G = experiment: RT-qPCR PCR array mQPA-8-Nrf2, MT1G expression in NHEK; assay type: cell-based, human; conditions: basal conditions, 20 μM
Experimental: as §1, §2, §3, §4, §5, §6, §7, §8

[3] = 24 hours of incubation, read-out: Viability Mean (%)
[4] = single replicates, 24 hours, read-out: Viability (%)

## Oc1ccc(C=Cc2cc(O)cc(O)c2)cc1 [Resveratrol]
GCLM
  GCLM % Control RPS28: 736 % Control
TXN
  TXN % Control RPS28: 345 % Control
HMOX1
  HMOX1 % Control RPS28: 451 % Control
Nrf2 pathway
  Expression of genes involved in oxidative and cellular stress response: stimulation of the expression of all genes (except MT1G)
[1]; 0.247 μM
  Morphological observations: +
  Viability (%): 98%
[1]; 0.741 μM
  Morphological observations: +
  Viability (%): 100%
[1]; 2.2 μM
  Morphological observations: +
  Viability (%): 105%
[1]; 6.7 μM
  Morphological observations: +
  Viability (%): 108%
[1]; 20 μM
  Morphological observations: +
  Viability (%): 88%
[1]; 540 μM
  Morphological observations: −, *
[1]; 60 μM
  Viability (%): 67% and 64%
[1]; 180 μM
  Viability (%): 29%
[2]; [3]
  viability at 24 h, 0.247 µM: 99%
  viability at 24 h, 0.741 µM: 101%
  viability at 24 h, 2.2 µM: 106%
  viability at 24 h, 6.7 µM: 106%
  viability at 24 h, 20 µM: 93%
  viability at 24 h, 60 µM: 65%
  viability at 24 h, 180 µM: 31%
  viability at 24 h, 540 µM: 8%
[2]; [4]
  viability at 24 h, 0.247 µM: 101%
  viability at 24 h, 0.741 µM: 102%
  viability at 24 h, 2.2 µM: 109%
  viability at 24 h, 6.7 µM: 109%
  viability at 24 h, 20 µM: 97%
  viability at 24 h, 60 µM: 65%
  viability at 24 h, 180 µM: 32%
  viability at 24 h, 540 µM: 8%
NHEK
  Viability of NHEK under irradiated condition: strongly impacted
RPS28
  RPS28 % Control RPS28: 100 % Control
TXNRD1
  TXNRD1 % Control RPS28: 492 % Control
NQO1
  NQO1 % Control RPS28: 1468 % Control
GCLC
  GCLC % Control RPS28: 554 % Control
MT1G
  MT1G % Control RPS28: 79 % Control

From patent publication US20250073210A1, “Use of Ergothioneine for Enhancing Glutathione Level” (priority 2022, published 2025)
